These results are taken from patent US5858700A, “Process for the isolation and purification of lycopene crystals” (Kemin Foods, LC, priority 1997, dated 1999).

The structures appear in SMILES notation.

One data set relates to rat. Particulars: oral; cited from earlier work.
A short description of data set [1]: Pigment (lycopene) stability in freeze-dried tomato skins on 6-day storage at 30° C. The class given is physicochemical. Particulars: 6 days at 30° C., hexanes extract, spectrophotometric. The source says: Wet tomato skins from Siagra Co., Chengmai, Thailand (8.3 kg of the 50 lb batch used in Example 1) were freeze-dried for three days in a tray freeze-dryer (FTS Systems Inc., Stone Ridge N.Y.) to obtain freeze-dried tomato skins (2.08 kg, 24.3 percent moisture) from which five samples were taken.
The first sample of freeze-dried tomato skins was ground in a rotary meat grinder, which separated the seeds from the tomato skins. Further separation using sieves and air separation produced samples that were substantially only from the skins or the seeds of the tomatoes. The skin and seed samples were ground separately in a CYCLOTEC TECATOR™ mill (Fisher Scientific, Pittsburgh Pa.) fitted with a 0.5 mm screen, and found to contain 1328 milligrams of pigment per kilogram of tomato skins and 97 milligrams of pigment per kilogram of tomato seeds. The seeds thus contribute little to the total extractable pigment yet constitute a large portion of the total sample mass.
A second sample was left in flake form, and was dried for 6 days at 30° C. A third sample was ground in a WILEY™ mill (Fisher Scientific, Pittsburgh Pa.) fitted with a 2 mm screen and dried for 6 days at 30° C. A fourth sample was ground in a WILEY™ mill fitted with a 1 mm screen and dried for 6 days at 30° C. A fifth sample was ground in a CYCLOTEC™ mill fitted with a 0.5 mm screen and dried for 6 days at 30° C.
At the end of the treatment, all of the samples were extracted with hexanes, analyzed spectrophotometrically, and compared with the amount of lycopene present in the freeze-dried flakes before the 6-day heat treatment. The samples ground in the CYCLOTEC™ mill (<0.5 mm particles) and the WILEY™ mill (<1 mm and <2 mm particles) had more of the oxidized lycopene content than the non-ground (flake) sample: 36, 33, 36 and 25 percent pigment losses, respectively. However, none of the samples after 6 days had over 75 percent of the lycopene that was present before the treatment.

In the next data set the test system is prostate cancer. Particulars: consumption of lycopene; Giovannucci et al. 1995; cited from earlier work.

With `CC(C)=O` [Acetone], the LD50 in the data set with rat is on record as 10.7 mL/kg.
Regarding `ClC(Cl)Cl` [Chloroform], in the data set with rat, the LD50 is given as 2.18 mL/kg.
With `CCOC(C)=O` [Ethyl Acetate], the LD50 in the data set with rat was 11.3 mL/kg.
As to `CC(O)CO` (stereo not shown) [Propylene Glycol, 1,2-propanediol], in the data set with rat, the LD50 was 25 mL/kg.
With `c1ccncc1` [Pyridine], the LD50 in the data set with rat is 1.58 mL/kg.
Consider `CC(C)=CCC/C(C)=C/C=C/C(C)=C/C=C/C(C)=C/C=C/C=C(C)/C=C/C=C(C)/C=C/C=C(\C)CCC=C(C)C` [lycopene, .psi.,.psi.-carotene], for which the pigment losses in data set [1] (CYCLOTEC mill, <0.5 mm particles) is recorded as 36%; in data set [1] (WILEY mill, <1 mm particles), 33%; in data set [1] (WILEY mill, <2 mm particles) it was 36%; in data set [1] (non-ground (flake) sample), 25%. The “risk of prostate cancer” value in the data set with prostate cancer was “reduced risk of prostate cancer”.
